The numbers were not newly measured in patent US20240315962A1, “EXTENDED RELEASE COMPOSITIONS COMPRISING PYRIDOSTIGMINE” (priority 2020, published 2024), which cites them from elsewhere.

With `CN(C)C(=O)Oc1ccc[n+](C)c1` [pyridostigmine], the bioavailability (NDA #020414) is reported as 10-20%. Where the note is “oral”, the elimination half-life is 3 to 5 h and the “time-to-maximum peak plasma concentration” value was 1 to 2 h.
